Measured values as given in the CheMixHub viscosity set.

Assay: xn = mol fraction of the nth substance listed

CC(=O)OCCC1CCCCC1 + CCCCCCCCCCO
viscosity [mPa·s], 101 kPa
Details | 300 K | 310 K | 320 K
x2 = 0.1066 | 2.65 | 2.14 | 1.77
x2 = 0.1534 | 2.74 | 2.2 | 1.82
x2 = 0.2863 | 2.94 | 2.34 | 1.91
x2 = 0.337 | 3.14 | 2.46 | 2.01
x2 = 0.4105 | 3.47 | 2.72 | 2.15
x2 = 0.4983 | 3.91 | 3.02 | 2.41
x2 = 0.5476 | 4.25 | 3.26 | 2.56
x2 = 0.6306 | 4.92 | 3.76 | 2.93
x2 = 0.702 | 5.57 | 4.15 | 3.18
x2 = 0.7382 | 5.93 | 4.4 | 3.37
x2 = 0.8402 | 7.22 | 5.25 | 3.94
x2 = 0.9332 | 8.92 | 6.35 | 4.67

CCCCCCCCCO + CCCCCCCCO
viscosity [mPa·s], 101.8 kPa
Details | x2 = 0.1095 | x2 = 0.3227 | x2 = 0.5251 | x2 = 0.7208 | x2 = 0.9082
298.15 K | 9.3 | 8.885 | 8.493 | 8.137 | 7.796
308.15 K | 6.575 | 6.317 | 6.057 | 5.821 | 5.595
318.15 K | 4.761 | 4.579 | 4.408 | 4.248 | 4.093

CCCCCCCCCO + CCCCCCCO
viscosity [mPa·s], 101.8 kPa
Details | x2 = 0.1184 | x2 = 0.3815 | x2 = 0.5514 | x2 = 0.7089 | x2 = 0.9183
298.15 K | 9.014 | 7.935 | 7.47 | 6.84 | 6.013
308.15 K | 6.366 | 5.68 | 5.353 | 4.96 | 4.408
318.15 K | 4.618 | 4.157 | 3.932 | 3.662 | 3.286

CCCCCC[n+]1ccn(C)c1.O=[N+]([O-])[O-] + CCCCCCCO
Details | viscosity [mPa·s]
308.15 K, 100 kPa, x1 = 0.9381 | 206.5

CCCCCCCCCO + CCCCCCO
viscosity [mPa·s], 101.8 kPa
Details | x2 = 0.1351 | x2 = 0.4186 | x2 = 0.5817 | x2 = 0.7358 | x2 = 0.9282
298.15 K | 8.731 | 7.177 | 6.384 | 5.606 | 4.847
308.15 K | 6.206 | 5.187 | 4.651 | 4.127 | 3.596
318.15 K | 4.51 | 3.821 | 3.453 | 3.093 | 2.717

CC(=O)N(C)C + CCCCCO
viscosity [mPa·s], 100 kPa
Details | 298.15 K | 313.15 K
x1 = 0.0569 | 3.02 | 2.057
x1 = 0.1068 | 2.69 | 1.887
x1 = 0.2009 | 2.246 | 1.634
x1 = 0.3051 | 1.92 | 1.419
x1 = 0.4017 | 1.68 | 1.283
x1 = 0.4989 | 1.498 | 1.159
x1 = 0.6011 | 1.358 | 1.065
x1 = 0.7029 | 1.223 | 0.973
x1 = 0.7966 | 1.121 | 0.895
x1 = 0.8962 | 1.041 | 0.833
x1 = 0.9519 | 0.981 | 0.8
